Values of other authors in publication PMC9516332 (Frontiers in Oncology, 2022).
Like-named read-outs stand apart in the source and are kept apart here.

Tests used:
Settings in all cases: cited from earlier work
[1] = biological target: panel of 255 wild-type kinases (Homo sapiens, UniProt P42685)
[2] = biological target: panel of 255 wild-type kinases (Homo sapiens, UniProt P06213)
[3] = biological target: T1, panel of 255 wild-type kinases (Homo sapiens, UniProt P52333)
T1 sequence (P52333 1-1124): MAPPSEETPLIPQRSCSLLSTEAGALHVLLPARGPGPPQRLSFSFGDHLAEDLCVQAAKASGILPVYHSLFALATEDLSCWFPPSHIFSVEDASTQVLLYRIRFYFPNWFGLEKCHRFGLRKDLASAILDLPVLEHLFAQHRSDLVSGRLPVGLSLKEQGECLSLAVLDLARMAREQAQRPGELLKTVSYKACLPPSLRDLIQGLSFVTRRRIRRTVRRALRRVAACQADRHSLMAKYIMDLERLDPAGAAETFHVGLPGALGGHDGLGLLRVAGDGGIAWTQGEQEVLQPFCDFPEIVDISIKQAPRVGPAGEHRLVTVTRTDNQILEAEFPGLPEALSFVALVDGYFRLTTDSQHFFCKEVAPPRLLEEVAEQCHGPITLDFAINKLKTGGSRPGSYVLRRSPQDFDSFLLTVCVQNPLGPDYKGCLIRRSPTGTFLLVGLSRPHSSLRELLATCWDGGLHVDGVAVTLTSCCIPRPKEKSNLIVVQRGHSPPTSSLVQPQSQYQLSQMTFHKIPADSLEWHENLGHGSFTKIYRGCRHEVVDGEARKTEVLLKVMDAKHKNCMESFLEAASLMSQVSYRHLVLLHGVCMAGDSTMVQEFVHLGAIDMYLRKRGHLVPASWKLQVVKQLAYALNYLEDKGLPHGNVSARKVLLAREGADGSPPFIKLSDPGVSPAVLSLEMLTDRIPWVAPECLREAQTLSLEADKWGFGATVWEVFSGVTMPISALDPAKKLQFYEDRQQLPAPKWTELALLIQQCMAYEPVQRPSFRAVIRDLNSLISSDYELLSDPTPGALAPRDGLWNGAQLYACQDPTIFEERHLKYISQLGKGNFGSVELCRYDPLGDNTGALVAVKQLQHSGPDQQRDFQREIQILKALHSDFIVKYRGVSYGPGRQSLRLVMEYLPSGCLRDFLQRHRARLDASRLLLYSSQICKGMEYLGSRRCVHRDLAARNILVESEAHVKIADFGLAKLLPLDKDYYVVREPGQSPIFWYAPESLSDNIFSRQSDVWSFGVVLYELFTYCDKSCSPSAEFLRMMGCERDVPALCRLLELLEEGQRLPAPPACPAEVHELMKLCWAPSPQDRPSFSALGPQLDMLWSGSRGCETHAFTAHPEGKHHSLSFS

[4] = biological target: panel of 255 wild-type kinases (Homo sapiens, UniProt O14578)
[5] = biological target: panel of 255 wild-type kinases (Homo sapiens, UniProt Q05397)
[6] = biological target: panel of 255 wild-type kinases (Homo sapiens, UniProt Q16620)
[7] = biological target: panel of 255 wild-type kinases (Homo sapiens, UniProt P42684)
[8] = biological target: panel of 255 wild-type kinases (Homo sapiens, UniProt P06239)
[9] = biological target: T2, panel of 255 wild-type kinases (Homo sapiens, UniProt Q14164)
T2 sequence (Q14164 1-716): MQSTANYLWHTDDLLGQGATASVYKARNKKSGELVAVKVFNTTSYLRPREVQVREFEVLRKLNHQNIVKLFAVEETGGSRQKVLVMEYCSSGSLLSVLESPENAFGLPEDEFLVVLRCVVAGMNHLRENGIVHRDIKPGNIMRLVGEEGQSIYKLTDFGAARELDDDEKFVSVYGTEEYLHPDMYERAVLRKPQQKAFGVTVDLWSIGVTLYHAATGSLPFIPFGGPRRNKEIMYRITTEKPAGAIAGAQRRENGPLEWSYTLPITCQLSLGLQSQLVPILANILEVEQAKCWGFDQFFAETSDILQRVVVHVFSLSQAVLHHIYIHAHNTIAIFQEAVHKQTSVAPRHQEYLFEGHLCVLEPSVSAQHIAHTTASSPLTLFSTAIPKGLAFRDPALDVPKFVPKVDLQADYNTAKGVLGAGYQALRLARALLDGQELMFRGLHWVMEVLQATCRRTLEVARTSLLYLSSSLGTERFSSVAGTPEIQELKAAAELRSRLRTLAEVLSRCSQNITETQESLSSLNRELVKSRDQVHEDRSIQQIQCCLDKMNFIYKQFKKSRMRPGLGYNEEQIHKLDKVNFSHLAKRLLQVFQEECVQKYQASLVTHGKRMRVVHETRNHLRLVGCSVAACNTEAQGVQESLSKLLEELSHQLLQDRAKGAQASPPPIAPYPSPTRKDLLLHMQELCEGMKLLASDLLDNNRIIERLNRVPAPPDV

[10] = kinase FRK, 1 µmol/L single concentration, ref DOI: 10.1158/1535-7163.MCT-18-0877
[11] = kinase INSR, 1 µmol/L single concentration, ref DOI: 10.1158/1535-7163.MCT-18-0877
[12] = kinase JAK3, 1 µmol/L single concentration, ref DOI: 10.1158/1535-7163.MCT-18-0877
[13] = kinase CRIK, 1 µmol/L single concentration, ref DOI: 10.1158/1535-7163.MCT-18-0877
[14] = kinase FAK, 1 µmol/L single concentration, ref DOI: 10.1158/1535-7163.MCT-18-0877
[15] = kinase TRKB, 1 µmol/L single concentration, ref DOI: 10.1158/1535-7163.MCT-18-0877
[16] = ARG kinase assay, 1 µmol/L single concentration, ref DOI: 10.1158/1535-7163.MCT-18-0877
[17] = kinase LCK, 1 µmol/L single concentration, ref DOI: 10.1158/1535-7163.MCT-18-0877
[18] = kinase IKKε, 1 µmol/L single concentration, ref DOI: 10.1158/1535-7163.MCT-18-0877
[19] = kinase FRK, 1 µmol/L single concentration, ref DOI: 10.1371/journal.pone.0092146
[20] = kinase INSR, 1 µmol/L single concentration, ref DOI: 10.1371/journal.pone.0092146
[21] = kinase JAK3, 1 µmol/L single concentration, ref DOI: 10.1371/journal.pone.0092146
[22] = kinase CRIK, 1 µmol/L single concentration, ref DOI: 10.1371/journal.pone.0092146
[23] = kinase FAK, 1 µmol/L single concentration, ref DOI: 10.1371/journal.pone.0092146
[24] = kinase TRKB, 1 µmol/L single concentration, ref DOI: 10.1371/journal.pone.0092146
[25] = ARG kinase assay, 1 µmol/L single concentration, ref DOI: 10.1371/journal.pone.0092146
[26] = kinase LCK, 1 µmol/L single concentration, ref DOI: 10.1371/journal.pone.0092146
[27] = kinase IKKε, 1 µmol/L single concentration, ref DOI: 10.1371/journal.pone.0092146

Row | SMILES | %-inhibition at 1 µmol/L, FRK [1, 10] | %-inhibition at 1 µmol/L, INSR [2, 11] | %-inhibition at 1 µmol/L, JAK3 [3, 12] | %-inhibition at 1 µmol/L, CRIK [4, 13] | %-inhibition at 1 µmol/L, FAK [5, 14] | %-inhibition at 1 µmol/L, TRKB [6, 15] | %-inhibition ARG [7, 16] | %-inhibition at 1 µmol/L, LCK [8, 17] | %-inhibition at 1 µmol/L, IKKε [9, 18] | also measured
1 | CC#CC(=O)N1CCC[C@H]1c1nc(-c2ccc(C(=O)Nc3ccccn3)cc2)c2c(N)nccn12 [acalabrutinib] | 47% | -4.67% | -1% | -5% | -1.39% | 14% | 3.53% | 7% | 1.46% | 
2 | CCc1cc2c(cc1N1CCC(N3CCOCC3)CC1)C(C)(C)c1[nH]c3cc(C#N)ccc3c1C2=O [alectinib] | 53% | 83% | 5.58% | 2.31% | 17% | 38% | 1% | 20% | 1.59% | 
3 | COc1cc(N2CCC(N3CCN(C)CC3)CC2)ccc1Nc1ncc(Cl)c(Nc2ccccc2P(C)(C)=O)n1 [brigatinib] |  |  |  |  |  |  |  |  |  | %-inhibition at 1 µmol/L, FRK [1]: 104%; %-inhibition at 1 µmol/L, INSR [2]: 101%; %-inhibition at 1 µmol/L, JAK3 [3]: 97%; %-inhibition at 1 µmol/L, CRIK [4]: 3.33%; %-inhibition at 1 µmol/L, FAK [5]: 99%; %-inhibition at 1 µmol/L, TRKB [6]: 27%; %-inhibition ARG [7]: 55%; %-inhibition at 1 µmol/L, LCK [8]: 77%; %-inhibition at 1 µmol/L, IKKε [9]: 24%
4 | Cc1cc(Nc2ncc(Cl)c(Nc3ccccc3S(=O)(=O)C(C)C)n2)c(OC(C)C)cc1C1CCNCC1 [ceritinib] | 85% | 102% | 2.84% | -0.933% | 100% | 20% | -1.08% | 6% | 6.42% | 
5 | O=C(c1ccc(F)c(F)c1Nc1ccc(I)cc1F)N1CC(O)([C@@H]2CCCCN2)C1 [cobimetinib] | 0.866% | 2.48% | -3.25% | 0.417% | -4% | -1.39% | -1.54% | -3% | -3.35% | 
6 | C[C@@H](Oc1cc(-c2cnn(C3CCNCC3)c2)cnc1N)c1c(Cl)ccc(F)c1Cl [crizotinib] |  |  |  |  |  |  |  |  |  | %-inhibition at 1 µmol/L, FRK [1, 19]: 26%; %-inhibition at 1 µmol/L, INSR [2, 20]: 84%; %-inhibition at 1 µmol/L, JAK3 [3, 21]: 77%; %-inhibition at 1 µmol/L, CRIK [4, 22]: -12%; %-inhibition at 1 µmol/L, FAK [5, 23]: 90%; %-inhibition at 1 µmol/L, TRKB [6, 24]: 102%; %-inhibition ARG [7, 25]: 80%; %-inhibition at 1 µmol/L, LCK [8, 26]: 98%; %-inhibition at 1 µmol/L, IKKε [9, 27]: 7.49%
7 | CC(C)(C)c1nc(-c2cccc(NS(=O)(=O)c3c(F)cccc3F)c2F)c(-c2ccnc(N)n2)s1 [dabrafenib] |  |  |  |  |  |  |  |  |  | %-inhibition at 1 µmol/L, FRK [1, 19]: 81%; %-inhibition at 1 µmol/L, INSR [2, 20]: 7.51%; %-inhibition at 1 µmol/L, JAK3 [3, 21]: 22%; %-inhibition at 1 µmol/L, CRIK [4, 22]: -2.74%; %-inhibition at 1 µmol/L, FAK [5, 23]: 13%; %-inhibition at 1 µmol/L, TRKB [6, 24]: 86%; %-inhibition ARG [7, 25]: 54%; %-inhibition at 1 µmol/L, LCK [8, 26]: 83%; %-inhibition at 1 µmol/L, IKKε [9, 27]: 15%
8 | C=CC(=O)N1CCC[C@@H](n2nc(-c3ccc(Oc4ccccc4)cc3)c3c(N)ncnc32)C1 [ibrutinib] | 100% | 9.51% | 91% | -0.165% | 5% | 26% | 7% | 100% | -0.696% | 
9 | CO[C@@H]1[C@H](N(C)C(=O)c2ccccc2)C[C@H]2O[C@]1(C)n1c3ccccc3c3c4c(c5c6ccccc6n2c5c31)C(=O)NC4 [midostaurin] | 70% | 35% | 100% | 1.32% | 28% | 99% | 25% | 91% | 97% | 
10 | C=CC(=O)Nc1cc(Nc2nccc(-c3cn(C)c4ccccc34)n2)c(OC)cc1N(C)CCN(C)C [osimertinib] | 34% | 86% | 97% | 7% | 81% | -0.7% | 5.35% | 3.62% | 8% | 
11 | CC(=O)Nc1cccc(-n2c(=O)n(C3CC3)c(=O)c3c(Nc4ccc(I)cc4F)n(C)c(=O)c(C)c32)c1 [trametinib] |  |  |  |  |  |  |  |  |  | %-inhibition at 1 µmol/L, FRK [1, 19]: -3%; %-inhibition at 1 µmol/L, INSR [2, 20]: -30%; %-inhibition at 1 µmol/L, JAK3 [3, 21]: 6%; %-inhibition at 1 µmol/L, CRIK [4, 22]: -4.25%; %-inhibition at 1 µmol/L, FAK [5, 23]: -2.41%; %-inhibition at 1 µmol/L, TRKB [6, 24]: -3.4%; %-inhibition ARG [7, 25]: -4%; %-inhibition at 1 µmol/L, LCK [8, 26]: -7%; %-inhibition at 1 µmol/L, IKKε [9, 27]: -3.63%
